Test results as given in US10918891B2, “Cosmetic treatment method for the skin” (SYNTIVIA, priority 2016, dated 2021).

Legend:
[1] = tested on: IL-8; assay: IL-8 assay (ELISA) in culture supernatants of NHEK after induction with IL-1β; format: cell-based, human
Method: This study is carried out on normal human Keratinocytes (NHEK).
In this example, the anti-inflammatory properties of the compound (Ia) are evaluated by the assay of the IL-8, after the application of the cytokine IL-1β at 10 ng/ml onto NHEKs. IL-8 is a major inflammatory cytokine produced first of all during the inflammatory response of the keratinocytes. The quantification of the IL-8 in the culture supernatants allows an evaluation of the inflammatory state of the cells.
The IL-1β is added to the culture medium of the NHEKs at a rate of 10 ng/ml for 24 h. After incubation, the culture media are removed and replaced with culture media containing the compound (Ia) at 3 ppm. After 24 h of incubation, the supernatants are collected.
The reference anti-inflammatory element is dexamethasone (Sigma) used at 0.4 ppm. A control having undergone the same experimental conditions without the compound (Ia) (CTL), as well as a non-induced control (CTL without IL-1β), are also carried out.
The quantification of the IL-8 in 50 μl of the culture supernatants is measured by an ELISA test (human CXCL8/IL-8 Immunoassay, R&D Systems).
Each treatment is carried out in triplicate.

[2] = tested on: MMP-9; assay: Gene expression of MMP-9 by quantitative RT-PCR in NHEK; format: cell-based, human; conditions: (Ia) 3 ppm (10^−5M), 24 hours
Method: In these examples, the expression of the messenger RNA is measured by the technique of quantitative RT-PCR (reverse transcription followed by polymerase chain reaction), after incubation in vitro of the various cell types in the absence or in the presence of compound (Ia).
This study was carried out on normal human dermal Fibroblasts (NHDF) or normal human epidermal Keratinocytes (NHEK). The compound (Ia) is tested at 10^−5M in an aqueous solution with 0.1% dimethylsulfoxide.
The cells are cultured at the concentration of 10,000 cells per well of 96-well plates, in the presence of standard culture medium according to the cell type.
The compound (Ia) is then added at the concentration (3 ppm), for 24 hours.
The supernatant is eliminated and the cells are taken up in a specific buffer for the extraction of the messenger RNA (mRNA). The mRNA is purified and reverse transcribed in the presence of a commercial reverse transcriptase.
The complementary DNA (cDNA) obtained is quantified by RT-PCR, by means of suitable primers. The rate of expression of the mRNA is normalised with 5 reference genes.
The cells used for this example are normal human keratinocytes (NHEK).

[3] = tested on: NHEK cells; assay: Cellular viability (WST1) of NHEK exposed to cigarette extract; format: cell-based, human; conditions: (Ia) 10 ppm pretreatment 24 h and treatment 24 h; cigarette extract diluted 1/50; WST1, 450 nm; Control 2.070, Cigarette extract 1.392
Method: The cells used for this example are normal human Fibroblasts (NHDF) and normal human epidermal Keratinocytes (NHEK).
A cigarette extract is prepared using a laboratory device allowing the sucking up of cigarette smoke via a suction system, and the controlled bubbling of this cigarette smoke into the solution studied, which is then filtered on a 0.22 μm filter made of Polyether sulfone (PES).
The cells are cultured at the concentration of 7000 cells per well of 96-well plates (NHDF) or 8000 cells per well (NHEK), in the presence of standard culture medium for NHDF or NHEK (for 24 h 37° C., 5% CO2).
After pretreatment of the cells with the compound (Ia) at 10 ppm for 24 h the cells are treated with the cigarette extract diluted to 1/50th in the culture medium with or without the compound (Ia) at 10 ppm for 24 h. The absorbance is read a first time at […] (Multiskan®).
Then, 10 μl of WST1 (Roche) are introduced into the medium and the cells are incubated for 3 hours.
The absorbance at 450 nm is measured after the addition of WST1 (Multiskan®) and the results obtained, in terms of cellular viability, are shown in tables 11 and 12 below. The treated cells (Cigarette extract+(Ia)) are compared to the untreated cells (Control) or to the cells having only undergone exposure to the cigarette extract (Cigarette extract).

[4] = tested on: explants of human skin (NATIVESKIN, Genoskin); assay: γ-H2Ax immunofluorescence (DNA double-strand breaks) on human skin explants after repeated UVA irradiation; format: cell-based; conditions: skin explant, topical (Ia) 100 ppm in Carbopol, three UVA stresses 50 J/cm2
Method: In these examples, the protective properties of the compound (Ia) against the damage caused to the DNA and to the extracellular matrix by repeated UVA irradiation, are measured on explants of human skin (NATIVESKIN, Genoskin).
Upon reception of the explants, the latter are topically coated with Carbopol® (Lubrizol)+DMSO for the non-UVA control (CTL without stress) and for the control with stress by UVAs (CTL UVA), and with Carbopol®+compound (Ia) at 100 ppm for the test.
Over three days, the cells are subjected to three stresses with UVAs at a rate of 50 joules per square centimetre.
The first irradiation takes place 24 hours after the treatments. The products are present before, during and after the irradiation. The control without stress is wrapped in aluminium and also placed in the irradiator.
During the irradiation, the explants inserted are disposed in a petri dish with PBS. Fresh medium (Genoskin Culture medium) is added after the irradiation. […]
The sections are mounted on a slide, and observed using a microscope (Leica DM5000B). An absence of fluorescence is clearly observed for the sample treated with the compound (Ia) according to the invention, which corresponds to an absence of double-strand breaks of the DNA.
The fluorescence is quantified by means of the microscope.

Cc1ncc(CO)c(CNC(=O)/C=C/c2ccc(O)c(O)c2)c1O [Compound (Ia)]
inhibition at 3 ppm ([1]; Homo sapiens, compound 3 ppm, versus control CTL, read-out: inhibition of the production of IL8 in keratinocytes subjected to inflammation in the presence of IL-1β): 30%
Quantification of the IL8 (optical density) ([1]; IL-1β 10 ng/ml 24 h, then substance 24 h, compound (Ia) 3 ppm, dexamethasone 0.4 ppm, CTL 0.23, CTL without IL-1β 0.06): 0.16 optical density
Reduction of the gene expression compared to the basal level based on 100% (MMP-9) [2]: −75%
Cellular viability on NHEK (Optical density) [3]: 2.589 Optical density
Cells positive for γ-H2Ax marking / total number of cells [4]: 59/1282
Cells positive for γ-H2Ax marking based on 100% ([4]; CTL UVA 33.93%, CTL without stress 4.34%): 4.76%
